Ends that are not written are not given here.

Assay [1] concerns facial blood flow. The following applies: marmoset, electrical stimulation of the trigeminal ganglion; cited from earlier work.
Assay [2] relates to acute attacks of migraine. The following applies: clinical trials; cited from earlier work.
The next assay deals with endogenous CGRP receptor (Homo sapiens, UniProt O60894+Q16602). Description: CGRP functional antagonism using SK-N-MC-BLA (4C10), β-lactamase transcriptional reporter assay. The following applies: SK-N-MC (4C10) cells, inhibition of β-lactamase expression in the presence of 200 pM CGRP. The class given is cell-based. (In general: In a reporter assay the amount or activity of a reporter protein is the signal.)
endogenous CGRP receptor, sequence (Q16602 23-461): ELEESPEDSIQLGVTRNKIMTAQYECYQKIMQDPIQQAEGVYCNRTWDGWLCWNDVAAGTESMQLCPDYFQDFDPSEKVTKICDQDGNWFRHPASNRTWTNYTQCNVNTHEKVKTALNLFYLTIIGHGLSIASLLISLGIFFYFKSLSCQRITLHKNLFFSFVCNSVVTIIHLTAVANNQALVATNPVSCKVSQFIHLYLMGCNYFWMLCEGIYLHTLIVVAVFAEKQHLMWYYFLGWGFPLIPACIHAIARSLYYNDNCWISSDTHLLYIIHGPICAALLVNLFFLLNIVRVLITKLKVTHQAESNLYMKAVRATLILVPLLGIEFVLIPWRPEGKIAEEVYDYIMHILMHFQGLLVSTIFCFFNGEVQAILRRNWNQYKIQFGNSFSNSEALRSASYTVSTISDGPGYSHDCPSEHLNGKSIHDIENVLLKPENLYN
endogenous CGRP receptor, sequence (O60894 27-148): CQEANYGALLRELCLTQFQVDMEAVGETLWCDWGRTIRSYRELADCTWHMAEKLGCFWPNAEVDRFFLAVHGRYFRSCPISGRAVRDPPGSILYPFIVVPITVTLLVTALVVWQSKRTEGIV

For assay [3], the target named is T1, CGRP receptor (SK-N-MC membrane) (Homo sapiens, UniProt O60894+Q16602).
T1 construct: Purified SK-N-MC membrane was purchased from Perkin Elmer; purchased Perkin Elmer; host or cells: SK-N-MC membrane
T1 sequence (Q16602 23-461): as the sequence (Q16602 23-461) above
T1 sequence (O60894 27-148): as the sequence (O60894 27-148) above
Description: I125-CGRP binding displacement assay on purified SK-N-MC membrane. The essentials:
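Displacement of I125-CGRP binding was measured by filtration and scintillation counting after 2 h room-temperature incubation with compound and SK-N-MC membranes (buffer pH 7.4, MgCl2, BSA, Tween). Percent displacement calculated against total binding and 1 uM cold CGRP nonspecific controls, then curve-fitted.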

Another assay relates to middle meningeal artery. The following applies: rats, electrical stimulation of the dura mater, prior administration; cited from earlier work.
Assay [4] relates to facial blood flow. The following applies: rat, trigeminal ganglion stimulation; cited from earlier work.

With `NCCCC[C@H](NC(=O)[C@@H](Cc1cc(Br)c(O)c(Br)c1)NC(=O)N1CCC(N2Cc3ccccc3NC2=O)CC1)C(=O)N1CCN(c2ccncc2)CC1` [BIBN4096BS], in the assay on facial blood flow [1], the “effect on increase in facial blood flow” value was “blocked”. Further, the “efficacy in acute attacks of migraine” value in assay [2] was “effective in treating acute attacks of migraine”.

As a reminder, the IC50 is the concentration that inhibits the measured activity by half. The term Ki denotes a measure of affinity in units of concentration, obtained from inhibition or displacement. Turning to `CC(C)(C)N1CCN(c2c(F)cccc2[C@H]2S[C@@H](CC(=O)N3CCC(N4CCc5ccccc5NC4=O)CC3)C(=O)N2Cc2ccccc2)CC1` [Compound 547], the IC50 on endogenous CGRP receptor was under 1000 nM. The same compound registered a Ki in assay [3] of under 1000 nM.

Take `CC(C)(C)N1CCN(c2c(F)cccc2[C@@H]2S[C@@H](CC(=O)N3CCC(N4CCc5ccccc5NC4=O)CC3)C(=O)N2Cc2ccccc2)CC1` [Compound 548]: the IC50 at endogenous CGRP receptor is under 1000 nM. Further, the Ki in assay [3] was under 1000 nM.

In the case of `CC(C)(C)CCN1C(=O)[C@H](CC(=O)N2CCC(n3c(=O)[nH]c4ncccc43)CC2)SC1c1cccc(F)c1N1CCN(C(=O)OC(C)(C)C)CC1` (stereo partly drawn) [Compound 549], on endogenous CGRP receptor, the IC50 fell in the range of 1000 to 5000 nM. The Ki in assay [3] was under 1000 nM.

Take `CC(C)(C)CCN1C(=O)[C@H](CC(=O)N2CCC(N3CCc4ccccc4NC3=O)CC2)SC1c1cccc(F)c1N1CCC(N2CCCCC2)CC1` (stereo partly drawn) [Compound 550]: at endogenous CGRP receptor, the IC50 was under 1000 nM. Moreover, the Ki in assay [3] was under 1000 nM.

With `CC(C)(C)CCN1C(=O)[C@H](CC(=O)N2CCC(n3c(=O)[nH]c4ncccc43)CC2)SC1c1cccc(F)c1C1CCN(C(=O)OC(C)(C)C)CC1` (stereo partly drawn) [Compound 551], the IC50 on endogenous CGRP receptor was over 5000 nM. Further, the Ki in assay [3] was 1000 to 5000 nM.

For the compound `CC(C)(C)CCN1C(=O)[C@H](CC(=O)N2CCC(N3CCc4ccccc4NC3=O)CC2)S[C@@H]1c1cccc(F)c1C1CCNCC1` [Compound 552, 3-(1-(2-((2R,5S)-2-(3-fluoro-2-(piperidin-4-yl)phenyl)-3-(3,3-dimethylbutyl)-4-oxothiazolidin-5-yl)acetyl)piperidin-4-yl)-4,5-dihydro-1H-benzo[d][1,3]diazepin-2(3H)-one], at endogenous CGRP receptor, the IC50 is under 1000 nM. The compound also yielded a Ki in assay [3] of under 1000 nM.

Turning to `CC(C)(C)CCN1C(=O)[C@H](CC(=O)N2CCC(N3CCc4ccccc4NC3=O)CC2)S[C@H]1c1cccc(F)c1C1CCNCC1` [Compound 553, 3-(1-(2-((2S,5S)-2-(3-fluoro-2-(piperidin-4-yl)phenyl)-3-(3,3-dimethylbutyl)-4-oxothiazolidin-5-yl)acetyl)piperidin-4-yl)-4,5-dihydro-1H-benzo[d][1,3]diazepin-2(3H)-one], the IC50 on endogenous CGRP receptor fell in the range of 1000 to 5000 nM. This compound gave a Ki in assay [3] of under 1000 nM.

For the compound `CC(C)(C)CCN1C(=O)[C@H](CC(=O)N2CCC(n3c(=O)[nH]c4ncccc43)CC2)S[C@@H]1c1cccc(F)c1C1CCNCC1` [Compound 554], the IC50 at endogenous CGRP receptor was under 1000 nM. In assay [3], this compound gave an inhibition constant Ki of under 1000 nM.

With `CC(C)(C)CCN1C(=O)[C@H](CC(=O)N2CCC(n3c(=O)[nH]c4ncccc43)CC2)S[C@H]1c1cccc(F)c1C1CCNCC1` [Compound 555], the half-inhibitory concentration (IC50) on endogenous CGRP receptor fell in the range of 1000 to 5000 nM. The same compound came in with a Ki in assay [3] of under 1000 nM.

For `CC(C)(C)CCN1C(=O)[C@H](CC(=O)N2CCC(n3c(=O)[nH]c4ncccc43)CC2)SC1c1cccc(F)c1N1CCC(c2ccncc2)CC1` (stereo partly drawn) [Compound 556], the IC50 at endogenous CGRP receptor was under 1000 nM. In addition, in assay [3], the Ki is under 1000 nM.

“CGRP (8-37): a peptide CGRP antagonist (VTHRLAGLLSRSGGVVKNNFVPTNVGSKAF; ends and bridges not checked; UniProt P06881 90-119, looked up, fragment)”: in the assay on middle meningeal artery, the “effect on increase of middle meningeal artery diameter” value is reported as “blocked”. For the same compound, in the assay on facial blood flow [4], the “effect on increased facial blood flow” value is reported as “inhibited”.

Source of the values: US8163737B2 (Vertex Pharmaceuticals Incorporated, priority 2006, dated 2012).
